Results on nine compounds are retold here after patent publication US12686676B2, “Compound, endothelin-A receptor antagonist, and pharmaceutical composition” (Alchemedicine, Inc., priority 2021, dated 2026).

Data set [1] can be described thus: PAMPA membrane permeability test. Format: in vitro ADME. The following applies: 10 μM, room temperature, 16 hours. On the procedure:
The membrane permeability test was carried out using PAMPA. The specific method is as follows. • (1) Lecithin was added at 2% (w/v) into a dodecane solution and completely dissolved. • (2) 5 μL of the lecithin/dodecane solution was added to each well of a donor plate. In this respect, a pipette tip was positioned in no contact with the membrane. • (3) Immediately thereafter, 150 μL of a donor solution (5% DMSO-PBS) containing an evaluation compound (10 μM) was added to each well of the donor plate, and 300 μL of an aqueous buffer was added to each well of a PTFE acceptor plate. • (4) The donor plate filled with the donor solution containing the evaluation compound was slowly placed on the acceptor plate, and the undersurface of the membrane was confirmed to be in contact with the buffer in all the wells. • (5) After covering, the apparatus was incubated at room temperature for 16 hours. • (6) After incubation, 100 μL of the solution was recovered from each of the upper surface and the undersurface of the membrane in the acceptor plate, and acetonitrile containing an equal amount of an internal standard was added thereto. • (7) The concentration of the evaluation compound was measured to calculate a permeation rate.
A sample having a membrane permeation rate value of 1×10^−8 cm/sec or lower was given “C”; a sample having a value in the range of higher than 1×10^−8 cm/sec and 10×10^−8 cm/sec or lower was given “B”; and a sample having a value of higher than 10×10^−8 cm/sec was given “A”.
(In PAMPA a lipid-coated filter parts donor from acceptor wells.)

For data set [2], the target named is T1, human endothelin B receptor (Homo sapiens, UniProt P24530).
T1 construct: expressed in transfected cells; host or cells: CHO-K1-mt aequorin cells
T1 sequence (P24530 27-442): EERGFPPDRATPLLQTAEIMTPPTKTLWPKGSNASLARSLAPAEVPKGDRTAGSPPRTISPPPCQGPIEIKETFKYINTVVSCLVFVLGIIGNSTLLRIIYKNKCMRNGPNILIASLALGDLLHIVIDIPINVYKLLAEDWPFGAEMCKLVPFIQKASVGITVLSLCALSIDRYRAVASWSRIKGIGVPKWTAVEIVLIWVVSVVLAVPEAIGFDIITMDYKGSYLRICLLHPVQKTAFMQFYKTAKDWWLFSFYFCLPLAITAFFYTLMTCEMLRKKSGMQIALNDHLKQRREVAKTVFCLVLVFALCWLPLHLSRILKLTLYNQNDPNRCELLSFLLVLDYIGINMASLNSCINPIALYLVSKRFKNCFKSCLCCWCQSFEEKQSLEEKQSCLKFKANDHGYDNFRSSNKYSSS
Nature of the data set: Endothelin B receptor inhibitory effect (aequorin light emission, endothelin at EC80). Format: cell-based. The following applies: for IC50: CHO-K1-mt aequorin cells expressing human endothelin B receptor, endothelin at EC80, read-out: ETB receptor inhibitory effect. How it is done: The inhibitory effect on an endothelin B receptor was studied by the following method.
CHO-K1-mt aequorin cells forced to express a human endothelin B receptor (Accession Number NP_000106.1) were cultured in an antibiotic-free medium for 18 hours, then treated with PBS-EDTA (5 mM EDTA), centrifuged (2 min, 405×g, room temperature), and then suspended in an assay buffer (DMEM/HAM's F12 with HEPES+0.1% BSA protease free).
1×10^6 cells/mL of the cells were incubated at room temperature for 4 hours in the presence of coelenterazine h (Molecular Probes, Inc.) (final concentration: 5 µM). Agonistic reaction based on endothelin was confirmed to determine an endothelin concentration corresponding to EC80.
Subsequently, 50 µL (10000 cells/well) of the cell suspension treated with coelenterazine h and 50 µL of an assay buffer containing a test substance (final concentration: 0.5% in DMSO) were added to each well of a 96-well plate. 15 minutes later, endothelin was added such that its final concentration was an EC80 concentration. Receptor activity was measured as the quantity of light emission in FDSS6000 (Hamamatsu Photonics K.K.).

Data set [3] is described as follows: Metabolic stability in human liver microsome. Also: tested at 0.99 µM. The format is in vitro ADME. The following applies: after 30 minutes with NADPH. On the procedure:
The metabolic stability in a human liver microsome was evaluated by the following method.
• (1) Human liver microsome: 20 mg/mL • (2) Test compound: 1.1 mM solution in DMSO • (3) Potassium phosphate buffer solution: 66.7 mM (pH 7.4) • (4) NADPH solution: 10 mM in a potassium phosphate buffer solution • (5) Quenching solution: 0.5% formic acid solution in acetonitrile containing warfarin as an internal standard 2. Method
(§1) 971.5 μL of the potassium phosphate buffer solution and 27.5 μL of the human liver microsome were placed in a propylene tube and suspended. 1 μL of the test compound was added thereto, and a 180 μL aliquot of this mixture was transferred to a fresh tube. The mixture was preincubated at 37° C. for 5 minutes. Then, 20 μL of the NADPH solution (for an incubation time of 30 minutes) or 20 μL of the potassium phosphate buffer solution (for an incubation time of 0 minutes) was added thereto. After incubation, the reaction was terminated by the addition of 200 μL of the quenching solution. Subsequently, the tube was centrifuged at 3220×g for 20 minutes, and the concentration of an unchanged form of the test compound in […] of a supernatant was measured by LC-MS/MS. On the basis of the obtained peak area of the unchanged form, the residual rate (%) of the unchanged form was calculated using the rate of 0 minutes of incubation time as 100%.
Background: Microsomes from liver hold many membrane-bound enzymes, among them those of drug oxidation.

Data set [4] is described as follows: Metabolic stability in mouse liver microsome. Also: tested at 0.99 µM. The format is in vitro ADME. The settings on record: after 30 minutes with NADPH. On the procedure: as §1
The metabolic stability in a mouse liver microsome was evaluated by the same method as above except that the mouse liver microsome was used instead of the human liver microsome.

Take `Cc1cc2c(cc1C#Cc1ncccc1S(=O)(=O)Nc1noc(C)c1C)C(=O)OC2` [Example 4, N-(4,5-Dimethylisoxazol-3-yl)-2-((6-methyl-3-oxo-1,3-dihydroisobenzofuran-5-yl)ethynyl)pyridine-3-sulfonamide]: the Membrane permeation rate entry in data set [1] was “C (membrane permeation rate value of 1×10^−8 cm/sec or lower)”. Moreover, in data set [2], the IC50 is greater than 5 µM. For the same compound, the “Metabolic stability (human), residual rate of the unchanged form” value in data set [3] is recorded as 49%. Also, the “Metabolic stability (mouse), residual rate of the unchanged form” value in data set [4] amounted to 91%.

For the compound `Cc1cc2c(cc1C#Cc1ncccc1S(=O)(=O)Nc1onc(C)c1C)C(C)(C)OC2` [Example 8, N-(3,4-Dimethylisoxazol-5-yl)-2-((3,3,6-trimethyl-1,3-dihydroisobenzofuran-5-yl)ethynyl)pyridine-3-sulfonamide], the Membrane permeation rate result in data set [1] is “B (value in the range of higher than 1×10^−8 cm/sec and 10×10^−8 cm/sec or lower)”. Further, the IC50 in data set [2] is greater than 5 µM. In data set [3], the “Metabolic stability (human), residual rate of the unchanged form” value is given as 73%. The “Metabolic stability (mouse), residual rate of the unchanged form” value in data set [4] amounted to 40%.

For the compound `Cc1onc(NS(=O)(=O)c2cccnc2C#Cc2cc3c(cc2Cl)COC3)c1C` [Example 6, 2-((6-Chloro-1,3-dihydroisobenzofuran-5-yl)ethynyl)-N-(4,5-dimethylisoxazol-3-yl)pyridine-3-sulfonamide], the Membrane permeation rate entry in data set [1] was “A (value of higher than 10×10^−8 cm/sec)”. The IC50 in data set [2] is greater than 5 µM. The “Metabolic stability (human), residual rate of the unchanged form” value in data set [3] is reported as 56%. Also, the “Metabolic stability (mouse), residual rate of the unchanged form” value in data set [4] worked out at 54%.

Consider `Cc1cc2c(cc1C#Cc1ncccc1S(=O)(=O)Nc1onc(C)c1Cl)C(C)(C)OC2` [Example 9, N-(4-Chloro-3-methylisoxazol-5-yl)-2-((3,3,6-trimethyl-1,3-dihydroisobenzofuran-5-yl)ethynyl)pyridine-3-sulfonamide], for which the Membrane permeation rate result in data set [1] is recorded as “A (value of higher than 10×10^−8 cm/sec)”. Moreover, in data set [2], the IC50 was greater than 5 µM. For the same compound, the “Metabolic stability (human), residual rate of the unchanged form” value in data set [3] was 28%. In data set [4], the “Metabolic stability (mouse), residual rate of the unchanged form” value was 5%.

Consider `Cc1onc(NS(=O)(=O)c2cccnc2C#Cc2ccc3c(c2)COC3)c1C` [Example 5, 2-((1,3-Dihydroisobenzofuran-5-yl)ethynyl)-N-(4,5-dimethylisoxazol-3-yl)pyridine-3-sulfonamide], for which, in data set [1], the Membrane permeation rate result is “B (value in the range of higher than 1×10^−8 cm/sec and 10×10^−8 cm/sec or lower)”. In addition, the IC50 in data set [2] is greater than 5 µM. The “Metabolic stability (human), residual rate of the unchanged form” value in data set [3] was found to be 63%. In addition, in data set [4], the “Metabolic stability (mouse), residual rate of the unchanged form” value is 90%.

Turning to `Cc1cc2c(cc1C#Cc1ncccc1S(=O)(=O)Nc1noc(C)c1C)COC2` [Example 3, N-(4,5-Dimethylisoxazol-3-yl)-2-((6-methyl-1,3-dihydroisobenzofuran-5-yl)ethynyl)pyridine-3-sulfonamide], the Membrane permeation rate entry in data set [1] is “A (value of higher than 10×10^−8 cm/sec)”. Further, in data set [2], the IC50 was greater than 5 µM. The “Metabolic stability (human), residual rate of the unchanged form” value in data set [3] stood at 47%. Also, the “Metabolic stability (mouse), residual rate of the unchanged form” value in data set [4] turned out to be 85%.

As to `Cc1cc2c(cc1C#Cc1ncccc1S(=O)(=O)Nc1noc(C)c1Cl)C(C)(C)OC2` [Example 7, N-(4-Chloro-5-methylisoxazol-3-yl)-2-((3,3,6-trimethyl-1,3-dihydroisobenzofuran-5-yl)ethynyl)pyridine-3-sulfonamide], the Membrane permeation rate entry in data set [1] is on record as “A (value of higher than 10×10^−8 cm/sec)”. The inhibition at 5 µM in data set [2] (at 5000 nM, read-out: ETB receptor inhibitory effect, % inhibition) stood at 57%. Moreover, the “Metabolic stability (human), residual rate of the unchanged form” value in data set [3] is 44%. Further, in data set [4], the “Metabolic stability (mouse), residual rate of the unchanged form” value was 81%.

`COc1nc(C)cnc1NS(=O)(=O)c1cccnc1C#Cc1cc2c(cc1C)COC2(C)C` [Example 10, N-(3-Methoxy-5-methylpyrazin-2-yl)-2-((3,3,6-trimethyl-1,3-dihydroisobenzofuran-5-yl)ethynyl)pyridine-3-sulfonamide]: the Membrane permeation rate result in data set [1] is given as “A (value of higher than 10×10^−8 cm/sec)”. Moreover, the IC50 in data set [2] is greater than 5 µM. Further, in data set [3], the “Metabolic stability (human), residual rate of the unchanged form” value came out at 66%. The “Metabolic stability (mouse), residual rate of the unchanged form” value in data set [4] turned out to be 68%.

Take `Cc1cc2c(cc1C#Cc1ncccc1S(=O)(=O)Nc1noc(C)c1C)C(C)(C)OC2` [Example 1, N-(4,5-Dimethylisoxazol-3-yl)-2-((3,3,6-trimethyl-1,3-dihydroisobenzofuran-5-yl)ethynyl)pyridine-3-sulfonamide]: in data set [1], the Membrane permeation rate entry is recorded as “A (value of higher than 10×10^−8 cm/sec)”. Also, the IC50 in data set [2] is greater than 5 µM. Moreover, the “Metabolic stability (human), residual rate of the unchanged form” value in data set [3] stood at 59%. For the same compound, the “Metabolic stability (mouse), residual rate of the unchanged form” value in data set [4] is listed as 85%.

For orientation: inhibition means the percentage by which the read-out fell short of the control.
